Measurements: patent US9884814B2, “Acylguanidines for treating osteoarthritis” (Merck Patent GmbH, priority 2013, dated 2018)

Test system: CAR-induced swelling, rat knee joint
Details: intra-articular, 30 minutes before CAR, TAC 10 μg/joint
Experimental: In order to induce an inflammation reaction, a carrageenan solution (CAR, 1%, 50 μl) was injected intra-articularly on one side into a rat knee joint. The uninjected side was used for control purposes. Six animals per group were used.
The specific cathepsin D inhibitors according to the invention were administered out intra-articularly 30 minutes before the CAR.

**Q.** C[C@]12C=CC(=O)C=C1CC[C@H]1[C@@H]3C[C@@H](O)[C@](O)(C(=O)CO)[C@@]3(C)C[C@H](O)[C@@]12F [TAC, Triamcinolone] was tested. Which “reduction of CAR-induced swelling” value did it give?
**A.** capable of reducing the CAR-induced swelling
